# Assays:
# human keratinocytes = test: Single cell migration assay, keratinocytes (clenbuterol, OA); format: cell-based
# Procedure: All single cell migration assays were performed on cells plated on glass cover-slips inserted into 35 mm plastic dishes (MatTek Corp., Ashland, Mass.) that had been coated for 1 hour at 37° C. with 60 μg/ml collagen L Cells were plated onto the collagen-coated glass cover-slips at a density of 250 cells/mm^2 for 3-6 hours at 37° C. Cells were either untreated (control), pre-treated with 10 nM okadaic acid (OA) (10 nM) for 45 minutes prior to the addition of OA (10 nM) and clenbuterol (1 μM) (OA/Clen) or treated with either OA or clenbuterol (1 μM) alone at time 0. The dishes were inserted into metal plates, maintained at 37° C., on inverted Nikon Diaphot microscopes to monitor single cell migration. Time-lapse images of the cell migratory response were digitally captured every 10 minutes over a one-hour period by Q-Imaging Retiga-EX cameras (Burnaby, BC, Canada) controlled by a custom automation written in Improvision Open Lab software (Lexington, Mass.) on a Macintosh G4. After each cell's center of mass was tracked using the Open Lab software, migration speed and distance were calculated and imported to Excel (Microsoft Corporation, Redmond, Wash.). Significance was taken as p<0.01, using Student's t test (unpaired) to compare the means of the control and β-AR agonist-treated cell populations.
# Keratinocytes were plated onto collagen-coated glass cover-slips at a concentration of 250 cells/mm^2 in KGM for 3-6 hours at 37° C. The migration of each single cell was monitored over a one-hour period, and the results were analyzed in excel as described. The speed of migration ([…]) is represented graphically in FIG. 1 Panel C, control n=57, clenbuterol n=57, OA n=60, OA-clenbuterol n=44. The data are representative of three independent experiments with at least two different keratinocyte strains. * P<0.01 between β-AR agonist and controls; #P<0.01 between OA-clenbuterol and clenbuterol alone.
# adult human CECs = test: Single cell migration assay, adult human corneal epithelial cells; format: cell-based
# Procedure: Glass bottomed 35 mm dishes (MatTek Corporation, Ashland, Mass.) were coated with collagen I (60 μg/ml) (Cohesion Technologies, Palo Alto, Calif.) in PBS for 1 hour at 37° C. Adult human CECs were plated at a density of 50 cells/mm^2 for 2 hours at 37° C. Cells were pre-incubated with either CGM alone or CGM containing 100 nM okadaic acid (OA) for 45 minutes at 37° C. Untreated cells were then incubated with CGM alone (control) or with CGM containing either 20 μM β-AR antagonist, 10 nM or 1 μM β-AR agonist. Pre-treated cells were stimulated with 100 nM OA alone or both 10 nM or 1 μM β-AR agonist and 100 nM OA at time 0. The 35 mm glass-bottomed dishes were placed in a heating chamber, designed to maintain the media between 35-37° C., secured to the stage of an inverted Nikon Diaphot microscope. Individual cell migration was monitored over a 1 hour period at 37° C., as described previously (Pullar and Isseroff (2005b) “Cyclic AMP mediates keratinocyte directional migration in an electric field” J Cell Sci 118:2023-2034). […] After each cell's center of mass was tracked using the Open Lab software, migration speed and distance were calculated and imported to Excel (Microsoft Corporation, Redmond, Wash.). […]
smiles,measurement,setting,value
"C=C1[C@@H](O)[C@@H]2O[C@]3(CC[C@H](/C=C/[C@@H](C)[C@@H]4CC(C)=C[C@@]5(O[C@H](C[C@@](C)(O)C(=O)O)CC[C@H]5O)O4)O3)CC[C@H]2O[C@@H]1[C@@H](O)C[C@H](C)[C@H]1O[C@@]2(CCCCO2)CC[C@H]1C [OA, okadaic acid]",effect on keratinocyte migration,human keratinocytes; OA 10 nM alone,no effect
same,effect on clenbuterol-induced reduction in speed,"human keratinocytes; OA 10 nM pre-treatment, then OA plus 1 μM clenbuterol",completely prevents
same,effect on migration rate,adult human CECs; OA 100 nM alone,no effect
same,effect on β-AR agonist-mediated decrease in migration rate,"adult human CECs; OA 100 nM pre-treatment, then OA plus β-AR agonist",completely prevents
